# Literature values in patent US20040116351A1, “Method for enhancing the natural reward system for exercise” (FAST BALANCE, INC., priority 2002, published 2004).
# Details: administered PEA
smiles,measurement,value
"NCCc1ccccc1 [PEA, phenylethylamine]",Time PEA lasts in the body,≤ 10 min
